In the NIST ThermoML archive (doi:10.1016/j.tca.2009.06.012):
± gives the expanded uncertainty stated by the source.

Assays:
[1] = Crystal
[2] = Molar enthalpy of transition or fusion; settings: Crystal; DSC

SMILES | Normal melting temperature ([1]; visual observation) [°C] | Molar enthalpy of transition or fusion [2] [kcal/mol] | Normal melting temperature ([1]; DTA) [°C]
Brc1ccc(-c2ccc(Br)cc2)cc1 [4,4'-dibromo-1,1'-biphenyl] | 167.50 ± 0.5 | 6.78 ± 0.203 | –
N#CCCC#N [butanedinitrile] | – | 0.884 ± 0.0765 | 56.50 ± 0.5
